Data taken from patent US11696903B2, “Compounds and methods for scavenging dicarbonyl electrophiles” (VANDERBILT UNIVERSITY, priority 2019, dated 2023).

Experiments:
oxidative damage = details: mice; cited from earlier work
[1] = Reaction rate of scavengers with dicarbonyl electrophiles / LG relative to lysine; details: faster than lysine
Excerpt: Under conditions such as inflammation and/or accumulated mutations, epithelial cells and adjacent immune cells express genes encoding enzymes involved in carcinogenesis, such as prostaglandin-endoperoxide synthase (PGHS2; COX2), NADPH oxidases, and spermine oxidase. The products of these enzymes (prostaglandins, O2D, and H2O2 plus 3-aminopropanal) lead to formation of dicarbonyl electrophiles: levuglandins (LGs), malondialdehyde (MDA), 4-oxo-nonenal (4-O NE), and acrolein. Electrophiles may lead to immune dysfunction and neoplastic risk by forming adducts with proteins and DNA11-15. However, the role of these reactive aldehydes in colon carcinogenesis is previously unknown. The present inventors have discovered that the level of LG-protein adducts is increased in the colon tissues of i) human ulcerative colitis (UC), colitis-associated carcinogenesis (CAC), and CRC; ii) mice treated with azoxymethane-dextran sulfate sodium (AOM-DSS), a model of CAC; and iii) transgenic mice with a tamoxifen-inducible disruption of Apc using the colon-specific, caudal type homeobox 2 (CDX2) Cre (CDX2P-CreERT2;Apcff), which recapitulates sporadic/genetically-driven CRC. […]

lysyl-LG adducts = assay: Lysyl-LG adducts in gastric tissues of H. pylori-infected mice (LC/ESI/MS/MS); assay type: in vivo; details: H. pylori infected mice treated for 8 weeks
Method: FIGS. 15A, 15B, and 15C are graphs showing C57BL/6 (A) or INS-GAS mice (B) were infected for 8 weeks with H. pylori PMSS1. Lysyl-LG adducts were measured in the gastric tissues by LC/ESI/MS/MS. *P<0.05. (C) Lysyl-LG adducts concentration was determined in AGS cells infected (plain bars) or not (open bars) with H. pylori PMSS1 for 24 h, in the presence or absence of EtSA. *P<0.05 vs. uninfected cells. § P<0.05 vs. infected cells without EtSA.
FIG. 17 is a graph showing reduction in the concentration of lysyl-levuglandin adducts in the stomachs of H. pylori infected mice treated with 2-hydroxybenzylamine for 8 weeks.
As discussed further in the Examples, the human gastric epithelial cell line AGS was infected with Hp PMSS1±10 mM EtSA. FVB/N insulin-gastrin (INS-GAS) mice and Mongolian gerbils were infected for 8 wk with Hp PMSS1 and 7.13, respectively; EtSA (0.75% in water) was given to animals beginning one wk post-infection. Lys-LG adducts, a marker of electrophile reactions, and EtSA were quantified by LC/EST/MS/MS. Histology was analyzed on H&E staining. DNA damage was evaluated by pH2AX staining. Hp colonization was quantified by culture. Mucosal immune responses were determined by RNA profiling and by Luminex assay. Mice were imaged using PET/CT with ^18F-FDG (inflammation marker) and ^18F—NaF (tumor marker). […]

[2] = system: LG-histone adducts in A549 cells; assay: LG-lysyl adduct formation on histones in A549 cells (LC/ESI/MS/MS); assay type: cell-based, human; details: COX-2-stimulated A549, 20 μM AA, 50 μM indomethacin preincubated 45 min
Method: FIGS. 11A, 11B, 11C, 11D, 11E, and 11F are a series of graphs showing that LG-lysine adducts of histones are found in cells and tissue, dependent on COX-2 activity. RAW264.7 mouse macrophage (A) and A549 human lung carcinoma (C) cells were stimulated to express COX-2, then given 20 μM arachidonic acid (AA) or vehicle. A subgroup of cells was preincubated 45 min with 50 μM indomethacin. As a measure of COX activity, PGE2 was determined by GC/MS from cell media prior to lysis (B and D). Nuclei were isolated, and histones were extracted and digested to individual amino acids prior to LC/EST/MS/MS analysis. *, p<0.05; ***, p<0.001 by ANOVA followed by Tukey's post-test (n≥5). (E). Histones were extracted from nuclei of rat liver, and analyzed as above for LG-lactam adduct. COX-2 protein was analyzed by Western blotting and plotted against lactam adduct levels. Each point corresponds to 1 liver, and shown is the line of regression (r^2=0.7237). Pearson r=0.8507; two-tailed p=0.0152. […]
(A). […] Histone proteins were analyzed by LC/ESI/MS/MS for LG-lysyl lactam adduct, n=2. (B) Stimulated A549 cells were pretreated with 30, 300, or 1000 μM EtSA prior to 1 h with 20 μM AA, and histones analyzed for LG-lysyl adduct. *, p<0.05 by one-way ANOVA followed by Dunnett's multiple comparisons post-test (n=3-5). […] Media was analyzed by GC/MS for PGE2 (n=3). […]

[3] = system: LG-histone adducts in RAW264.7 cells; assay: LG-lysyl adduct formation on histones in RAW264.7 cells (LC/ESI/MS/MS); assay type: cell-based, mouse
Method: FIGS. 11A, 11B, 11C, 11D, 11E, and 11F are a series of graphs showing that LG-lysine adducts of histones are found in cells and tissue, dependent on COX-2 activity. RAW264.7 mouse macrophage (A) and A549 human lung carcinoma (C) cells were stimulated to express COX-2, then given 20 μM arachidonic acid (AA) or vehicle. A subgroup of cells was preincubated 45 min with 50 μM indomethacin. As a measure of COX activity, PGE2 was determined by GC/MS from cell media prior to lysis (B and D). Nuclei were isolated, and histones were extracted and digested to individual amino acids prior to LC/EST/MS/MS analysis. *, p<0.05; ***, p<0.001 by ANOVA followed by Tukey's post-test (n≥5). (E). Histones were extracted from nuclei of rat liver, and analyzed as above for LG-lactam adduct. COX-2 protein was analyzed by Western blotting and plotted against lactam adduct levels. Each point corresponds to 1 liver, and shown is the line of regression (r^2=0.7237). Pearson r=0.8507; two-tailed p=0.0152. (F) LC-MS chromatograph of histones isolated from a rat liver with relatively high COX-2 expression (COX-2 band intensity of 117 arbitrary units).
(A). Scavengers were screened in RAW264.7 cells for the ability to decrease LG adduct formation on histones. Scavengers used were glucosamine (GA), 3-methoxysalicylamine (3-MoSA), pentylpyridoxamine (PPM), and 5-ethylsalicylamine (EtSA). Cells were stimulated to express COX-2, pretreated 45 min. with 500 μM scavenger or vehicle (H2O), and given 20 μM AA for 1 h before lysing and extracting histones. Histone proteins were analyzed by LC/ESI/MS/MS for LG-lysyl lactam adduct, n=2. (B) Stimulated A549 cells were pretreated with 30, 300, or 1000 μM EtSA prior to 1 h with 20 μM AA, and histones analyzed for LG-lysyl adduct. *, p<0.05 by one-way ANOVA followed by Dunnett's multiple comparisons post-test (n=3-5). (C). A549 cells were stimulated, pretreated 45 min. with 1000 μM EtSA or H2O vehicle, and given 20 μM AA for 1 h. Media was analyzed by GC/MS for PGE2 (n=3). There was no effect on PGE2 production at lower doses of EtSA (data not shown).
To stimulate COX-2 expression, A549 or RAW264.7 cells were treated overnight with 5 ng/mL IL-1B (A549) or 10 μg/mL LPS and 10 U/mL IFNγ (RAW264.7) in serum-free medium. When indicated, cells were pretreated with indomethacin, aldehyde scavengers (glucosamine, 3-MoSA, PPM or EtSA), or vehicle (ethanol for indomethacin, H2O for scavengers) for 45 min, and then given 20 μM arachidonic acid (AA) or DMSO vehicle for 1 h before lysing.
Cultured cells were lysed in hypotonic buffer (10 mM Tris/10 mM NaCl/3 mM MgCl2) containing 1 mM pyridoxamine and 100 μM indomethacin to prevent the artifactual formation of LGE2 during the lytic process. […] Protein concentration was determined using the method of Bradford. […]

Question: Which “oxidative damage in models of hypertension and Alzheimer's disease” value (oxidative damage) does the source give for `NCc1ccccc1O` [2-HOBA, 2-hydroxybenzylamine] here?
Answer: Its value is “protects mice from oxidative damage”.

Question: And the “rate of reaction with dicarbonyl electrophiles” value [1]?
Answer: The value was 3 orders of magnitude.

Question: And the “concentration of lysyl-levuglandin adducts in the stomachs” value (lysyl-LG adducts)?
Answer: Its value is “reduction”.

Question: Which LG-histone adduct formation [2] does the source give for `COc1ccc2c(c1)c(CC(=O)O)c(C)n2C(=O)c1ccc(Cl)cc1` [indomethacin, reference compound] here?
Answer: Its LG-histone adduct formation is “blocked”.

Question: And the LG-histone adduct formation ([3]; COX-2-stimulated RAW264.7, 20 μM AA, 50 μM indomethacin preincubated 45 min)?
Answer: Its LG-histone adduct formation is “blocked”.

Question: With pentylpyridoxamine [reference compound] as the molecule, how does the “LG adduct formation on histones” value ([3]; stimulated RAW264.7, 500 μM scavenger 45 min, 20 μM AA 1 h) read?
Answer: The value was “partially inhibited”.
